Read-outs that look alike come from different tables or passages of the source.
Legend:
[1] = tested on: phospho-Akt in BxPC-3 pancreatic cancer cells; conditions: hits experimentally tested and confirmed active; cited from earlier work
[2] = tested on: phospho-Akt in BxPC-3 pancreatic cancer cells; assay: Cell inhibition of phospho-Akt in BxPC-3 pancreatic cancer cells; format: cell-based; conditions: for IC50: Homo sapiens, BXPC-3, read-out: IC50 (Akt inhibition)
Caco-2 = conditions: curated dataset; cited from earlier work

Cc1nnc(NS(=O)(=O)c2ccc(NS(=O)(=O)c3ccc4ccccc4c3)cc2)s1 [Compound 9]
IC50 [1]: 20 µM

CC(=O)Nc1ccc(S(=O)(=O)Nc2nncs2)cc1 [Compound 11]
IC50 (Akt inhibition) ([2]; BxPC-3 cells, phospho-Akt): no activity | IC50 [2]: > 50 µM

COCCOCCOCC(=O)Nc1ccc(S(=O)(=O)Nc2nncs2)cc1 [Compound 12]
IC50 [2]: > 50 µM

CCCCCCCCCC(=O)Nc1ccc(S(=O)(=O)Nc2nncs2)cc1 [Compound 13]
IC50 [2]: 10 µM

CO/N=C(\C(=O)N[C@@H]1C(=O)N2C(C(=O)O)=C(CSc3nc(=O)c(O)nn3C)CS[C@H]12)c1csc(N)n1 [cerftriaxone]
Caco-2 permeability, experimental (Caco-2): 1.3 nm/s

COc1cccc2c1C(=O)c1c(O)c3c(c(O)c1C2=O)C[C@@](O)(C(=O)CO)C[C@@H]3O[C@H]1C[C@H](N)[C@H](O)[C@H](C)O1 [doxorubicin]
Caco-2 permeability, experimental (Caco-2): 1.6 nm/s

CC(C)Cc1ccc(C(C)C(=O)O)cc1 (stereo not shown) [ibuprofen]
Caco-2 permeability, experimental (Caco-2): 525 nm/s

CN1CCN(CC(=O)N2c3ccccc3C(=O)Nc3cccnc32)CC1 [pirenzepine]
Caco-2 permeability, experimental (Caco-2): 4.37 nm/s

C[C@H]1[C@H](OC(=O)CCC(=O)O)O[C@@H]2O[C@@]3(C)CC[C@H]4[C@H](C)CC[C@@H]1[C@@]24OO3 [sodium artesunate]
Caco-2 permeability, experimental (Caco-2): 39.8 nm/s
